Reference: patent US11351178B2, “Selective HDAC6 inhibitors” (ITALFARMACO S.P.A., priority 2017, dated 2022)

What was measured:
recombinant human HDAC6 = target: T1, recombinant human HDAC6 (Homo sapiens, UniProt Q9UBN7); test: Enzymatic screening on recombinant human HDAC6; format: biochemical; conditions: Table 2; read-out: HDAC6 IC50
T1 sequence (Q9UBN7 1-1215): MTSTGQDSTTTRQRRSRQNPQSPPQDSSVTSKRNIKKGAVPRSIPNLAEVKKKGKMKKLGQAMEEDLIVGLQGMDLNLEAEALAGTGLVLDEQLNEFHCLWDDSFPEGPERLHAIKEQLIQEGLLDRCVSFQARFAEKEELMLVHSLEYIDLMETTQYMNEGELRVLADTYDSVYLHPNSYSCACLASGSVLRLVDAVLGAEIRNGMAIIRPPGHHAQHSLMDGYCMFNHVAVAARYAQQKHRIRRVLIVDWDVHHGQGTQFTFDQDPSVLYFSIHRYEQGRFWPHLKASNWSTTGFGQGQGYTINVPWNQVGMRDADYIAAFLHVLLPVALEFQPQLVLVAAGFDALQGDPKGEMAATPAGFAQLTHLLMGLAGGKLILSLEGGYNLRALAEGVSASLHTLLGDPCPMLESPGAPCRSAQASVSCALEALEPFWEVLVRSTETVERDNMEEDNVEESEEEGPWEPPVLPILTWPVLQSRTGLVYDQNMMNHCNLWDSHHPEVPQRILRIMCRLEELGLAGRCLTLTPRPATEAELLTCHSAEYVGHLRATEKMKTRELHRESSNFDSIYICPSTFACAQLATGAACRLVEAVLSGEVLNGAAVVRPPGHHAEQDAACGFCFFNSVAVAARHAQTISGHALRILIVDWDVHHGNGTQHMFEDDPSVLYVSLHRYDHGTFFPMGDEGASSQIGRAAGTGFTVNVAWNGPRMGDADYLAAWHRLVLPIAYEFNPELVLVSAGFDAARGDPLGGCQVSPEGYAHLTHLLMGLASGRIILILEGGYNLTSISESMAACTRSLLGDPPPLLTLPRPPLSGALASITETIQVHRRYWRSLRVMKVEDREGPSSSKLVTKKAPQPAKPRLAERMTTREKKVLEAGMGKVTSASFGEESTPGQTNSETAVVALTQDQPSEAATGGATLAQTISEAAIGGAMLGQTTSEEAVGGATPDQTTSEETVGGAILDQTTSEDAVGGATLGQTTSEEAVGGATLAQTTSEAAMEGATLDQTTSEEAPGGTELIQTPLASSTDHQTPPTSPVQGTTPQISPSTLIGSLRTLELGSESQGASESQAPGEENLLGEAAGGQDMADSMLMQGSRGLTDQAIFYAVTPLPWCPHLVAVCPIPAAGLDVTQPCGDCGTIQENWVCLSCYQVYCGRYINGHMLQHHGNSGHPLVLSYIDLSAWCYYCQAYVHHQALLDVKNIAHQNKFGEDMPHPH
Protocol: Enzymatic activity on recombinant human HDAC6 and HDAC3 was evaluated (Table 2) for each synthesized compound.
After a period of incubation at 30° C. (incubation times vary for different isoforms and are shown in table 1) 25 μL of solution containing the substrate were added. As substrate, FLUOR DE LYS® deacetylase substrate (Enzo Life Sciences, cat #BML-K1104, FdL), FLUOR DE LYS®-Green substrate (Enzo Life Sciences, cat #BML-K1572 FdL_G) and trifluoroacetyl-L-lysine (Tfal)-2× concentrated solution in 25 mM Tris-HCl, pH 8, 130 mM NaCl 0.05% Tween-20 10% glycerol) were used. Following a reaction period at 30° C.

[1] = Stability to Phase I metabolism in rat S9 liver fraction; format: in vitro ADME; conditions: after 90 min, 37° C.
Protocol: Test compounds were incubated in rat and human liver S9 fraction at 37° C. up to 90 minutes in order to evaluate their stability to Phase I metabolism by hepatic enzymes. […] The reaction was stopped placing samples on ice bath and adding acidified acetonitrile. After centrifugation (10 minutes at 14000 rpm) an aliquot of the supernatant was diluted water, filtered with 0.45 μm regenerated cellulose syringe filters and injected in HPLC-UV or in LC-MS/MS. The percentages of the amount remaining at the various incubation times with respect to the initial amount were calculated. The intrinsic clearance was also calculated.

Stability in rat plasma = format: in vitro ADME; conditions: after 4 hours, 37° C.
Protocol: In order to evaluate the stability to circulating enzymes, test compounds were incubated in human and rat plasma at 37° C. in a thermostated oscillating bath. Each test compound was incubated at μM (50 μM when the samples were analysed by UV/HPLC, 1 or 2 μM when the samples were analysed by LC-MS/MS) concentration for 0, 15, 30 min and 1, 2 and 4 hours. The reaction was stopped placing tubes on ice bath and adding acidified acetonitrile. After centrifugation for 10 minutes at 14000 rpm, an aliquot of the supernatant was diluted with water, filtered with 0.45 μm syringe filters and injected in HPLC-UV or in LC-MS/MS. The percentages of amount remaining at the various times of incubation with respect to initial amount were calculated. The half-life in plasma was also calculated.

Row | Compound | IC50 (recombinant human HDAC6) [nM] | residual percentage in rat S9 fraction [1] [%] | residual percentage in rat plasma (Stability in rat plasma) [%]
1 | O=C(NO)c1ccc(Cn2nnc(-c3ccccn3)n2)cc1 [comp. 89, 4-[[5-(2-pyridyl)tetrazol-2-yl]methyl]benzenecarbohydroxamic acid] | 9 | 97 | 70
2 | Cc1ccsc1-c1nnn(Cc2ccc(C(=O)NO)cc2)n1 [comp. 39, 4-[[5-(3-methyl-2-thienyl)tetrazol-2-yl]methyl]benzenecarbohydroxamic acid] | 3 | 0 | 63
3 | CCn1c(Sc2ccc(C(=O)NO)cc2)nnc1-c1ccc(F)cc1 [comp. 30, 4-[[4-ethyl-5-(4-fluorophenyl)-1,2,4-triazol-3-yl]sulfanyl]benzenecarbohydroxamic acid] | 25 | 63 | 49
4 | O=C(NO)c1ccc(Cc2nnc(-c3ccccc3)o2)cc1 [comp. 68, 4-[(5-phenyl-1,3,4-oxadiazol-2-yl)methyl]benzenecarbohydroxamic acid] | 4 | 34 | 77
5 | O=C(NO)c1ccc(Cn2nnnc2Cc2ccccc2)cc1 [comp. 37, 4-[(5-benzyltetrazol-1-yl)methyl]benzenecarbohydroxamic acid] | 212 | 82 | 6
6 | COc1ccc(Cc2nc(Cc3ccc(C(=O)NO)cc3)n(-c3ccc(C(F)(F)F)cc3)n2)cc1OC [comp. 44, 4-[[5-[(3,4-dimethoxyphenyl)methyl]-2-[4-(trifluoromethyl)phenyl]-1,2,4-triazol-3-yl]methyl]benzenecarbohydroxamic acid] | 415 | 87 | 32
7 | O=C(NO)c1ccc(Cn2nnc(-c3ccc(S(F)(F)(F)(F)F)cc3)n2)cc1 [comp. 110, 4-[[5-[4-(pentafluoro-lambda6-sulfanyl)phenyl]tetrazol-2-yl]methyl]benzenecarbohydroxamic acid] | 25 | 16 | 92
8 | O=C(NO)c1cc(F)c(Sc2nnc(N3CCOCC3)n2Cc2ccccc2)c(F)c1 [comp. 117, 4-[(4-benzyl-5-morpholino-1,2,4-triazol-3-yl)sulfanyl]-3,5-difluoro-benzenecarbohydroxamic acid] | 17 | 88 | 82
9 | O=C(NO)c1cc(F)c(Cn2nnnc2-c2ccc3ccccc3n2)c(F)c1 [comp. 96, 3,5-difluoro-4-[[5-(2-quinolyl)tetrazol-1-yl]methyl]benzenecarbohydroxamic acid] | 7 | 41 | 99
10 | Cn1c(Sc2c(F)cc(C(=O)NO)cc2F)nnc1C1(c2cccc(F)c2)CCCC1 [comp. 102, 3,5-difluoro-4-[[5-[1-(3-fluorophenyl)cyclopentyl]-4-methyl-1,2,4-triazol-3-yl]sulfanyl]benzenecarbohydroxamic acid] | 33 | 16 | 82
11 | O=C(NO)c1ccc(Cn2nnc(-c3ccc(Cl)cc3)n2)cc1 [comp. 31, 4-[[5-(4-chlorophenyl)tetrazol-2-yl]methyl]benzenecarbohydroxamic acid] | 14 | 0 | 76
12 | Cn1c(Sc2ccc(C(=O)NO)cc2)nnc1C1COc2ccccc2O1 (stereo not drawn) [comp. 83, 4-[[5-(2,3-dihydro-1,4-benzodioxin-3-yl)-4-methyl-1,2,4-triazol-3-yl]sulfanyl]benzenecarbohydroxamic acid] | 22 | 92 | 76
